What was measured:
KRas^G12R = target: T1, KRas^G12R (Homo sapiens, UniProt P01116, G12R); assay: KRas binding assay (TR-FRET displacement of Cy5 labelled tracer)
T1 construct: […]; biotin (biotinylated); purchased Accelegan Inc
Method: (§4) The ability of a compound to bind to KRas was measured using a TR-FRET displacement assay. […] After a 60-minute incubation at room temperature, the reaction was measured using a BMG LABTECH CLARIO star Plus via TR-FRET. […] The POC values were fit to a 4-parameter IC50 equation and the IC50 value reported.

KRas^G12V = target: T2, KRas^G12V (Homo sapiens, UniProt P01116, G12V); assay: as above
T2 construct: […]; biotin (biotinylated); purchased Accelegan Inc
Method: as §4

KRas^G12D = target: T3, KRas^G12D (Homo sapiens, UniProt P01116, G12D); assay: as above
T3 construct: […]; biotin (biotinylated); purchased Accelegan Inc
T3 sequence (P01116 1-169 isoform P01116-2 G12D): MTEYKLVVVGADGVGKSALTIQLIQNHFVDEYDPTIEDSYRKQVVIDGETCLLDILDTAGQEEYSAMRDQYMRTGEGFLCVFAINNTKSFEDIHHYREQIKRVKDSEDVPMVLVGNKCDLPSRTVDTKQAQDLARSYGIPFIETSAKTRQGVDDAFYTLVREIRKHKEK
Method: as §4

H727 cells, pERK = assay: Inhibition of KRas phosphorylation of ERK (Cisbio HTRF Advanced pERK assay); assay type: cell-based; details: Homo sapiens, NCI-H727, 3 h, read-out: Inhibition (HTRF IC50 nM) of KRas-mediated Phosphorylation of ERK, H727
Method: (§1) Inhibition of KRas Phosphorylation of ERK (HTRF) by Exemplary Compounds of Formula (I)
(§2) Cisbio HTRF Advanced pERK Assay Catalog #64AERPEH
(§3) • Day 1: Seed 6,000 cells/well −25 μl/well in 384-well white solid bottom plate; RPM1_10% FBS. […] To harvest cells from flask using 0.05% Trypsin/EDTA solution. Add 10 mL of media to stop trypsinizing. Pipette the cells into a conical bottom 50 mL centrifuge tube and centrifuge 5 min×1000 rpm. • 2. Re-suspend the cell pellet in media, take a cell count, and then adjust the cell density using fresh media. • 3. Seed 6,000 cells into cell culture plate with […]. The • 4. Incubate cell plate overnight in a 37° C., 5% CO2 incubator. Compound Titrations • 1. Use Tecan to complete the compound addition. Compounds start from 10 uM top, 3-fold dilution, and 10 doses. The final DMSO concentration is 0.8%. Dispensed 0.2 uM Trametinib as Min control. • 2. Incubate cell plate for 3 hrs in the incubator. Detection with Cisbio pERK HTRF Kit • 1. Dilute 1 volume of 4× lysis buffer with 3 volumes of deionized water. Then, add 100× the blocking reagent. Keep lysis buffer on the ice. • 2. At the end of the compound treatment, flick-off the media. • 3. Add 35 μL of lysis buffer per well using a Multidrop Combi. Then place on a plate agitator shaking at 300 rpm at 4° C. for 40 mins. • 4. Make up the HTRF antibody buffer. For each assay plate, mix 50 μL of d2-conjugate antibody with 950 μL of detection buffer. Similarly, mix 50 μL of Cryptate antibody with 950 μL of detection buffer. Then mix the two diluted antibodies together. • 5. Dispense 3.4 μL the antibody buffer to wells of an empty assay plate. Seal the plate and centrifuge plate 30 sec×1000 rpm. • 6. At the end of the 4° C. lysis, centrifuge the lysate plates 3 mins×1500 rpm. • 7. Use the Bravo to transfer 13.6 μL of lysate from cell culture plate to assay plate. Then incubate assay plate for 2 hrs at room temperature. • 8. At the end of incubation, read plate on the Envision after centrifuging plate 30 sec×1000 rpm.

ASPC1 cells, pERK = assay: as above; assay type: cell-based; details: Homo sapiens, ASPC1, 3 h, AsPC-1 cells, read-out: Inhibition (HTRF IC50 nM) of KRas-mediated Phosphorylation of ERK, AsPC-1
Method: as §1, §2, §3

PSN1 cells, pERK = assay: as above; assay type: cell-based; details: Homo sapiens, PSN1, 3 h, read-out: Inhibition (HTRF IC50 nM) of KRas-mediated Phosphorylation of ERK, PSN1
Method: as §1, §2, §3

MKN1 cells, pERK = assay: as above; assay type: cell-based; details: Homo sapiens, MKN-1, 3 h, read-out: Inhibition (HTRF IC50 nM) of KRas-mediated Phosphorylation of ERK, MKN1
Method: as §1, §2, §3

T2 sequence (P01116 1-169 isoform P01116-2 G12V): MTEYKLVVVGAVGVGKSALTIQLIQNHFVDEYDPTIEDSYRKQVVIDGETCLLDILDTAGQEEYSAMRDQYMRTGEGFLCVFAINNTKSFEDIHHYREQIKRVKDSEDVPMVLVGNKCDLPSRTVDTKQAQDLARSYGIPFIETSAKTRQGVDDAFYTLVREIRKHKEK
T1 sequence (P01116 1-169 isoform P01116-2 G12R): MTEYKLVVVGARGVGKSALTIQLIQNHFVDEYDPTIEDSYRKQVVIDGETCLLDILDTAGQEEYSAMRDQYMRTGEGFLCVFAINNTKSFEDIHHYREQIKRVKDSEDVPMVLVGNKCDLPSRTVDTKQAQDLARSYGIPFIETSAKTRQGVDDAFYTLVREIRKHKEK

CCc1c(F)ccc2cc(O)cc(N3CCc4c(nc(OC[C@@]56CCCN5C[C@H](F)C6)nc4N4CC5CC(O)C5C4)C3)c12 (stereo partly drawn) [Example 177, 3-(7-(8-ethyl-7-fluoro-3-hydroxynaphthalen-1-yl)-2-(((2R,7aS)-2-fluorohexahydro-1H-pyrrolizin-7a-yl)methoxy)-5,6,7,8-tetrahydropyrido[3,4-d]pyrimidin-4-yl)-3-azabicyclo[3.2.0]heptan-6-ol]
IC50 (KRas^G12R): 15 nM | IC50 (KRas^G12V): 9 nM | IC50 (KRas^G12D): 19 nM | IC50 (H727 cells, pERK): 1380 nM | IC50 (ASPC1 cells, pERK): 1310 nM | IC50 (PSN1 cells, pERK): ≥ 10000 nM | IC50 (MKN1 cells, pERK): 479 nM

Oc1cc(N2CCc3c(nc(OC[C@@]45CCCN4C[C@H](F)C5)nc3N3CC4CC(O)CC3C4)C2)c2c(Cl)c(F)ccc2c1 (single isomer, unassigned) [Example 76]
IC50 (KRas^G12R): 7 nM | IC50 (KRas^G12V): 7 nM | IC50 (KRas^G12D): 37 nM | IC50 (PSN1 cells, pERK): 5630 nM

CCc1c(F)ccc2cc(O)cc(N3CCc4c(nc(OC[C@@]56CCCN5C[C@H](F)C6)nc4N4C[C@H]5CC[C@@H](O)[C@H]5C4)C3)c12 [Example 185, (3aR,4R,6aS)-2-(7-(8-ethyl-7-fluoro-3-hydroxynaphthalen-1-yl)-2-(((2R,7aS)-2-fluorotetrahydro-1H-pyrrolizin-7a(5H)-yl)methoxy)-5,6,7,8-tetrahydropyrido[3,4-d]pyrimidin-4-yl)octahydrocyclopenta[c]pyrrol-4-ol]
IC50 (KRas^G12R): 46 nM | IC50 (KRas^G12V): 52 nM | IC50 (KRas^G12D): 143 nM | IC50 (H727 cells, pERK): 3720 nM | IC50 (ASPC1 cells, pERK): 5120 nM | IC50 (PSN1 cells, pERK): ≥ 10000 nM | IC50 (MKN1 cells, pERK): 1540 nM

CCc1c(F)ccc2cc(O)cc(N3CCc4c(nc(OCC5(CN(C)C)CC5)nc4N4CCCC5(CNS(=O)(=O)N5)C4)C3)c12 (centres unmarked) [Example 202, 7-(2-((1-((dimethylamino)methyl)cyclopropyl)methoxy)-7-(8-ethyl-7-fluoro-3-hydroxynaphthalen-1-yl)-5,6,7,8-tetrahydropyrido[3,4-d]pyrimidin-4-yl)-2-thia-1,3,7-triazaspiro[4.5]decane 2,2-dioxide]
IC50 (KRas^G12R): 7 nM | IC50 (KRas^G12V): ≤ 2 nM | IC50 (KRas^G12D): ≤ 2 nM | IC50 (H727 cells, pERK): 1350 nM | IC50 (ASPC1 cells, pERK): 543 nM | IC50 (PSN1 cells, pERK): 3900 nM | IC50 (MKN1 cells, pERK): 101 nM

CCc1c(F)ccc2cc(O)cc(N3CCc4c(nc(OC[C@@]56CCCN5C[C@H](F)C6)nc4N4CCCn5nc(C(=O)N(C)C)c(Cl)c5C4)C3)c12 [Example 192, 3-chloro-5-(7-(8-ethyl-7-fluoro-3-hydroxynaphthalen-1-yl)-2-(((2R,7aS)-2-fluorotetrahydro-1H-pyrrolizin-7a(5H)-yl)methoxy)-5,6,7,8-tetrahydropyrido[3,4-d]pyrimidin-4-yl)-N,N-dimethyl-5,6,7,8-tetrahydro-4H-pyrazolo[1,5-a][1,4]diazepine-2-carboxamide]
IC50 (KRas^G12R): 3 nM | IC50 (KRas^G12V): ≤ 2 nM | IC50 (KRas^G12D): ≤ 2 nM | IC50 (H727 cells, pERK): 29 nM | IC50 (ASPC1 cells, pERK): 24 nM | IC50 (PSN1 cells, pERK): ≥ 10000 nM | IC50 (MKN1 cells, pERK): 11 nM

CCc1c(F)ccc2cc(O)cc(N3CCc4c(nc(OC[C@@]56CCCN5C[C@H](F)C6)nc4N4C[C@H]5C[C@H](O)C[C@H]5C4)C3)c12 [Example 183, (3aR,5R,6aS)-2-(7-(8-ethyl-7-fluoro-3-hydroxynaphthalen-1-yl)-2-(((2R,7aS)-2-fluorohexahydro-1H-pyrrolizin-7a-yl)methoxy)-5,6,7,8-tetrahydropyrido[3,4-d]pyrimidin-4-yl)octahydrocyclopenta[c]pyrrol-5-ol]
IC50 (KRas^G12R): 23 nM | IC50 (KRas^G12V): 54 nM | IC50 (KRas^G12D): 150 nM | IC50 (H727 cells, pERK): 2920 nM | IC50 (ASPC1 cells, pERK): 1540 nM | IC50 (PSN1 cells, pERK): ≥ 10000 nM | IC50 (MKN1 cells, pERK): 498 nM

CN1CCC[C@H]1COc1nc2c(c(N3CCCC4(CC(=O)N4)C3)n1)CCN(c1cccc3cccc(Cl)c13)C2 (stereo partly drawn) [Example 207, 8-[7-(8-chloro-1-naphthyl)-2-[[(2S)-1-methylpyrrolidin-2-yl]methoxy]-6,8-dihydro-5H-pyrido[3,4-d]pyrimidin-4-yl]-1,8-diazaspiro[3.5]nonan-2-one]
IC50 (KRas^G12R): 553 nM | IC50 (KRas^G12V): 404 nM | IC50 (KRas^G12D): 765 nM | IC50 (H727 cells, pERK): ≥ 10000 nM | IC50 (ASPC1 cells, pERK): ≥ 10000 nM

CN1CCC[C@H]1COc1nc2c(c(N3CCOCC(C)(O)C3)n1)CCN(c1cccc3cccc(Cl)c13)C2 (stereo partly drawn) [Example 205, 4-[7-(8-chloro-1-naphthyl)-2-[[(2S)-1-methylpyrrolidin-2-yl]methoxy]-6,8-dihydro-5H-pyrido[3,4-d]pyrimidin-4-yl]-6-methyl-1,4-oxazepan-6-ol]
IC50 (KRas^G12R): 6430 nM | IC50 (KRas^G12V): 4700 nM | IC50 (KRas^G12D): 4690 nM | IC50 (H727 cells, pERK): ≥ 10000 nM | IC50 (ASPC1 cells, pERK): ≥ 10000 nM

OCC1COCCN(c2nc(OC[C@@]34CCCN3C[C@H](F)C4)nc3c2CCN(c2cc(O)cc4ccc(F)c(Cl)c24)C3)C1 (stereo partly drawn) [Example 73, 5-chloro-6-fluoro-4-(2-(((2R,7aS)-2-fluorohexahydro-1H-pyrrolizin-7a-yl)methoxy)-4-(6-(hydroxymethyl)-1,4-oxazepan-4-yl)-5,6-dihydropyrido[3,4-d]pyrimidin-7(8H)-yl)naphthalen-2-ol]
IC50 (KRas^G12R): 3 nM | IC50 (KRas^G12V): 3 nM | IC50 (KRas^G12D): 5 nM | IC50 (H727 cells, pERK): 871 nM | IC50 (ASPC1 cells, pERK): 661 nM | IC50 (PSN1 cells, pERK): 6380 nM | IC50 (MKN1 cells, pERK): 85 nM

CN1CCC[C@H]1COc1nc2c(c(N3C[C@@H]4C(=O)NC(=O)[C@@H]4C3)n1)CCN(c1cccc3cccc(Cl)c13)C2 [Example 206, (3aS,6aR)-5-[7-(8-chloro-1-naphthyl)-2-[[(2S)-1-methylpyrrolidin-2-yl]methoxy]-6,8-dihydro-5H-pyrido[3,4-d]pyrimidin-4-yl]-3a,4,6,6a-tetrahydropyrrolo[3,4-c]pyrrole-1,3-dione]
IC50 (KRas^G12R): 1620 nM | IC50 (KRas^G12V): 833 nM | IC50 (KRas^G12D): 932 nM | IC50 (H727 cells, pERK): ≥ 10000 nM | IC50 (ASPC1 cells, pERK): ≥ 10000 nM

Oc1cc(N2CCc3c(nc(OC[C@@]45CCCN4C[C@H](F)C5)nc3N3CC4CC(O)CC3C4)C2)c2c(Br)c(F)ccc2c1 (single isomer, unassigned) [Example 213]
IC50 (KRas^G12R): 3 nM | IC50 (KRas^G12V): 3 nM | IC50 (KRas^G12D): 11 nM | IC50 (PSN1 cells, pERK): 6500 nM

CN1CCC[C@H]1COc1nc2c(c(N3CCCC4(CNC(=O)N4)C3)n1)CCN(c1cccc3cccc(Cl)c13)C2 (stereo partly drawn) [Example 210, 7-(7-(8-chloronaphthalen-1-yl)-2-(((S)-1-methylpyrrolidin-2-yl)methoxy)-5,6,7,8-tetrahydropyrido[3,4-d]pyrimidin-4-yl)-1,3,7-triazaspiro[4.5]decan-2-one]
IC50 (KRas^G12R): 699 nM | IC50 (KRas^G12V): 497 nM | IC50 (KRas^G12D): 579 nM | IC50 (H727 cells, pERK): ≥ 10000 nM | IC50 (ASPC1 cells, pERK): ≥ 10000 nM

C[C@@]1(O)CCCN(c2nc(OCC34CCCN3CCC4)nc3c2CCN(c2cc(O)cc(Cl)c2C2CC2)C3)C1 [Example 204, (R)-1-(7-(3-chloro-2-cyclopropyl-5-hydroxyphenyl)-2-((hexahydro-1H-pyrrolizin-7a-yl)methoxy)-5,6,7,8-tetrahydropyrido[3,4-d]pyrimidin-4-yl)-3-methylpiperidin-3-ol]
IC50 (KRas^G12R): 9 nM | IC50 (KRas^G12V): 6 nM | IC50 (KRas^G12D): 6 nM | IC50 (H727 cells, pERK): 1670 nM | IC50 (ASPC1 cells, pERK): 1530 nM

CCc1c(F)ccc2cc(O)cc(N3CCc4c(nc(OC[C@@]56CCCN5C[C@H](F)C6)nc4N4CC5CCC(C4)O5)C3)c12 [Example 176, 4-(4-(8-oxa-3-azabicyclo[3.2.1]octan-3-yl)-2-(((2R,7aS)-2-fluorotetrahydro-1H-pyrrolizin-7a(5H)-yl)methoxy)-5,8-dihydropyrido[3,4-d]pyrimidin-7(6H)-yl)-5-ethyl-6-fluoronaphthalen-2-ol]
IC50 (KRas^G12R): ≤ 2 nM | IC50 (KRas^G12V): 11 nM | IC50 (KRas^G12D): 78 nM | IC50 (H727 cells, pERK): 984 nM | IC50 (ASPC1 cells, pERK): 5940 nM

— patent US12421253B2 (Mirati Therapeutics, Inc., priority 2020, dated 2025)
